Experimental data taken from US8415469B2, “Compounds and methods for kinase modulation, and indications therefor” (Plexxikon Inc., priority 2005, dated 2013).

Legend:
Type in all cases: biochemical
B-Raf = molecular target: T1, B-Raf (Homo sapiens, UniProt P15056); test: AlphaScreen kinase assay, B-Raf; settings: read-out: IC50, activity toward kinase B-Raf
T1 construct: purchased Upstate Biotechnology

B-Raf V600E = molecular target: T2, B-Raf V600E (Homo sapiens, UniProt P15056, V600E); test: AlphaScreen kinase assay, B-Raf V600E; settings: read-out: IC50, activity toward kinase B-Raf V600E
T2 construct: P4254. pFastBacBD-CDC37 BRAF D437-K722-X, V600E; His6 with pFastBac HT leader (TEV site) (N); made in house; host or cells: Sf9 (baculovirus; chaperone CDC37 co-expressed)
T2 sequence (P15056 with tags, fused parts or gaps V600E): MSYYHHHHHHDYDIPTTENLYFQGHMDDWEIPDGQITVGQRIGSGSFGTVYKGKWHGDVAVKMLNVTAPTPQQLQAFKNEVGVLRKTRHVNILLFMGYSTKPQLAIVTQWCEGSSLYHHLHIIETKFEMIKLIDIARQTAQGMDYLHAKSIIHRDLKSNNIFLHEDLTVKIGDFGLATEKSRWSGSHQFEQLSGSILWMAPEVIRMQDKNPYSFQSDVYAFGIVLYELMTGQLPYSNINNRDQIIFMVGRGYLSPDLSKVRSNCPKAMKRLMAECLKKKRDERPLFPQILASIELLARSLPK

c-Raf-1 = molecular target: T3, c-Raf-1 (Homo sapiens, UniProt P04049); test: AlphaScreen kinase assay, c-Raf-1; settings: read-out: IC50, activity toward kinase c-Raf-1
T3 construct: purchased Upstate Biotechnology
T3 sequence (P04049 whole entry): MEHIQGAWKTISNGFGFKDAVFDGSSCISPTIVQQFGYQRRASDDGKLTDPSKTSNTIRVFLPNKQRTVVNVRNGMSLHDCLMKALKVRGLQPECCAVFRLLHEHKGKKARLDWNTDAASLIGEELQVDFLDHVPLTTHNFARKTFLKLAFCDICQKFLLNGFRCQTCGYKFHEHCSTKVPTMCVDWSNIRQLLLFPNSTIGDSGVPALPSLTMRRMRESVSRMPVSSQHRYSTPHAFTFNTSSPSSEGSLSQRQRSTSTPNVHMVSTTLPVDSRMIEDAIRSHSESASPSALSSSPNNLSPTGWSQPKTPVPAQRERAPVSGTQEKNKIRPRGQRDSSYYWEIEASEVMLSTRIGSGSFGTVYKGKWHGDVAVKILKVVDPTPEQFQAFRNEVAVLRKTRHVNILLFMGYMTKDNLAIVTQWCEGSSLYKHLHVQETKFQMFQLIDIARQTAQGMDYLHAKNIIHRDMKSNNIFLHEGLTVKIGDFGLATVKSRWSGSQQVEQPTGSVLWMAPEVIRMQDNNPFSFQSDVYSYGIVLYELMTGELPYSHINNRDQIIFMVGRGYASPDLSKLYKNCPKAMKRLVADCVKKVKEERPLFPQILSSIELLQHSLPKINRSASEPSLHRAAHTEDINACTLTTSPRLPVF

Jnk3 = molecular target: T4, Jnk3 (Homo sapiens, UniProt P53779); test: AlphaScreen kinase assay, Jnk3; settings: read-out: IC50, activity toward kinase Jnk3
T4 construct: purchased Upstate Biotechnology

Met = molecular target: T5, Met (Homo sapiens, UniProt P08581); test: AlphaScreen kinase assay, Met; settings: read-out: IC50, activity toward kinase Met
T5 construct: P1818.pETN6 BI-PTP MET G1056-G1364-X WT; His6 (N); made in house; host or cells: E. coli (PTP1B co-expressed)
T5 sequence (P08581 with tags, fused parts or gaps): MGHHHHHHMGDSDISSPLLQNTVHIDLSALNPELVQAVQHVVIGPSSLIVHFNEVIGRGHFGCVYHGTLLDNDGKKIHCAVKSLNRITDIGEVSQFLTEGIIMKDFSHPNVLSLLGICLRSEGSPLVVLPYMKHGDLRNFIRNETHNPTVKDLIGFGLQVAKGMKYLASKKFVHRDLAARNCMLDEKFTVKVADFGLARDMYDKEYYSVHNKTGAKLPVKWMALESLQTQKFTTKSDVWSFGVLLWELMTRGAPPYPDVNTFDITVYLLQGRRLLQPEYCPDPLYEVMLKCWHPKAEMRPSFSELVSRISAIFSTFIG
In short: (§1)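 Stock 20 mM compound in DMSO, diluted 1:3 serially to 8 final concentrations. Kinase phosphorylates biotinylated peptide; donor (streptavidin) and acceptor (anti-phospho antibody) beads then associate. Reduced acceptor emission indicates inhibition.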

Ret = molecular target: T6, Ret (Homo sapiens, UniProt P07949); test: AlphaScreen kinase assay, Ret; settings: read-out: IC50, activity toward kinase Ret
T6 construct: P1378.pET-SF BI-PTP RET H661-R1012 HIS; made in house
T6 sequence (P07949 with tags, fused parts or gaps): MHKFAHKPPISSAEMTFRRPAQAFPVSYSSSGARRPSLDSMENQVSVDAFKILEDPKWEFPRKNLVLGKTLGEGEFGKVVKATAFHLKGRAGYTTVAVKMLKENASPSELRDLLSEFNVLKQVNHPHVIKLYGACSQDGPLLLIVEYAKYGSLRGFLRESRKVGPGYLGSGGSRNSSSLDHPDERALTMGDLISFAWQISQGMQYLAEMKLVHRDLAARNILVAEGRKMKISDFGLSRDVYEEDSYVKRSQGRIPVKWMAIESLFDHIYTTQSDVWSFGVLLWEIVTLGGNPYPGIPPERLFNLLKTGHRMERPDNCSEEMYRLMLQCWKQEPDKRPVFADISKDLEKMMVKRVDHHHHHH
Description: (§4) AlphaScreen assays were done using compounds dissolved in DMSO to a concentration of 20 mM. The compounds were diluted accordingly to the desired final concentrations in each sample well, using 1:3 serial dilution for a total of 8 concentration points. Plates were prepared such that each kinase reaction is 20 μl in 1× kinase buffer, 5% DMSO and 10 μM ATP. After incubation of the kinase reaction for 1 hour at room temperature, 5 μl of donor beads in stop buffer (50 mM EDTA in 1× kinase buffer) was added, the sample was mixed and incubated for 20 minutes at room temperature before adding 5 μl of acceptor beads in stop buffer. The samples were incubated for 60 minutes at room temperature and the signal per well was read on AlphaQuest reader.

Zap70 = molecular target: T7, Zap70 (Homo sapiens, UniProt P43403); test: AlphaScreen kinase assay, Zap70; settings: read-out: IC50, activity toward kinase Zap70
T7 construct: P1868.pFastBac1 ZAP70 D327-G606 HIS, WT; His7 (HHHHHHH) (C); made in house
T7 sequence (P43403 with tags, fused parts or gaps): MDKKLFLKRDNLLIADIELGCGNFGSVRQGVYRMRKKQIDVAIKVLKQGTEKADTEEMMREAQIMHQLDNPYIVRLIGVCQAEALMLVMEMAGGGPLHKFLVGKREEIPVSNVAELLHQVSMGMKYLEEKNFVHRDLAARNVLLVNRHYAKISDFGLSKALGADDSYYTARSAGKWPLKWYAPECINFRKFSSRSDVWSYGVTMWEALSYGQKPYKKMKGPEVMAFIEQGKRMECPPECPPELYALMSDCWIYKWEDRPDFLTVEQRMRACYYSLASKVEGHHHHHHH
In short: as §1

IGF1R = IGF1R (Homo sapiens, UniProt P08069); test: AlphaScreen kinase assay, IGF1R; settings: read-out: IC50, activity toward kinase IGF1R
IGF1R, sequence (P08069 31-1367): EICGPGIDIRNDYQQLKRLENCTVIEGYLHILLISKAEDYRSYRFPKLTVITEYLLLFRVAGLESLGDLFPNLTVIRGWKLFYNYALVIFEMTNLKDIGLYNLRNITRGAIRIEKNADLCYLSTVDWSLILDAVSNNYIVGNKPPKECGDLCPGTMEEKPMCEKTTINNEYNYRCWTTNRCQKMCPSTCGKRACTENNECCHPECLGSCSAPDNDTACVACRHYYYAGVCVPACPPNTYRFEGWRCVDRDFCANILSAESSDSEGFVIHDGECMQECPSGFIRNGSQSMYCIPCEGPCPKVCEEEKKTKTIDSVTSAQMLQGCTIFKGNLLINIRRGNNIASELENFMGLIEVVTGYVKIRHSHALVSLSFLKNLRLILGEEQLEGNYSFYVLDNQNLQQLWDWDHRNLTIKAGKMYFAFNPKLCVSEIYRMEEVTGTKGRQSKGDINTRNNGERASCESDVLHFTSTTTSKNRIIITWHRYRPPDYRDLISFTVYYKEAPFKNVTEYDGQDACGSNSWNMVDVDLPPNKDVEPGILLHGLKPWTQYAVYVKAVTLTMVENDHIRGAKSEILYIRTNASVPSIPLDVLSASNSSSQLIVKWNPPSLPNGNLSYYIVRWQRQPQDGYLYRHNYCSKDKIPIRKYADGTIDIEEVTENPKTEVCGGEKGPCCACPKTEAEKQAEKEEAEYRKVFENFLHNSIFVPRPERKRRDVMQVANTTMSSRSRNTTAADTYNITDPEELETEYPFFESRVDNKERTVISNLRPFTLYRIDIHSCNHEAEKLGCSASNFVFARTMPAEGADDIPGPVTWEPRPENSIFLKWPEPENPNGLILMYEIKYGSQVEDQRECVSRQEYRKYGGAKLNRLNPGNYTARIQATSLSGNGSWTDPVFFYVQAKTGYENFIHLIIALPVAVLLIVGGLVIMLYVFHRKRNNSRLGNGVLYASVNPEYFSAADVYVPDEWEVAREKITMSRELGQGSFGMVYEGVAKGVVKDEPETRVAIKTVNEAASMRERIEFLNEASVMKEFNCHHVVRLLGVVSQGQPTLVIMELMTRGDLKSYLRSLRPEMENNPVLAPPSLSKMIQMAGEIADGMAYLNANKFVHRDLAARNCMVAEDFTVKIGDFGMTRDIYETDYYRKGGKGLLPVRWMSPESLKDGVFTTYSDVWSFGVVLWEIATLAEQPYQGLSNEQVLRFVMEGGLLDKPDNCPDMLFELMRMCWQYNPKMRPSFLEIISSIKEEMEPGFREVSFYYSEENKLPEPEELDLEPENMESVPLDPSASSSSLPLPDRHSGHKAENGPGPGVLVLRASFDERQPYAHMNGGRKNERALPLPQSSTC
Description: as §4

Itk = molecular target: T8, Itk (Homo sapiens, UniProt Q08881); test: AlphaScreen kinase assay, Itk; settings: read-out: IC50, activity toward kinase Itk
T8 sequence (Q08881 1-620): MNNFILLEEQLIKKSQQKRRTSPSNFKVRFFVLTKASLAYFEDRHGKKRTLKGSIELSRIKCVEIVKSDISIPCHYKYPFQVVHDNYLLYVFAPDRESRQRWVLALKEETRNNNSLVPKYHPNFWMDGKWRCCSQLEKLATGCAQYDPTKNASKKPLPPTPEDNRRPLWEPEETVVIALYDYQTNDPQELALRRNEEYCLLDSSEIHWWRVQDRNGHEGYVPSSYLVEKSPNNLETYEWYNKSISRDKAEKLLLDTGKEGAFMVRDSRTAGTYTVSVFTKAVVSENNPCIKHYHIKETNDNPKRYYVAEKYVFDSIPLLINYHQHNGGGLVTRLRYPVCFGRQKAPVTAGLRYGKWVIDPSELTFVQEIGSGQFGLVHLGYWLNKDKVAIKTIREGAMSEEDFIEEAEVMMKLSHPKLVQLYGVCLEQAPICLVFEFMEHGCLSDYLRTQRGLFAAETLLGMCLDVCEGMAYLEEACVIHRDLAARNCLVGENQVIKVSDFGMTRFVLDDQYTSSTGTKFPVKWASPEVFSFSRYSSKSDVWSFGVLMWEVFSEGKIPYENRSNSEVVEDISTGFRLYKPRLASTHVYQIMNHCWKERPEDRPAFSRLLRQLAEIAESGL
Excerpt: (§2) AlphaScreen assay was used to screen additional kinases. The assay is similarly dependent on the phosphorylation of a peptide substrate. In this assay, an antibody that recognizes phosphorylated substrate is bound to an acceptor bead. The peptide substrate is attached to biotin, which binds to a donor head that contains streptavidin. Thus phosphorylated substrate is bound by antibody and streptavidin, bringing the donor and acceptor heads into close proximity when kinase is not inhibited. The donor produces singlet oxygen which results in emission from the acceptor when they are in close proximity. Conversely, when kinase is inhibited, the donor and acceptor beads are not associated and the emission from the acceptor is reduced.
(§3) AlphaScreen assays were done using compounds dissolved in DMSO to a concentration of 20 mM. The compounds were diluted accordingly to the desired final concentrations in each sample well, using 1:3 serial dilution for a total of 8 concentration points.

Kdr = molecular target: T9, Kdr (Homo sapiens, UniProt P35968); test: Z'-Lyte FRET kinase assay (Invitrogen), Kdr; settings: read-out: IC50, activity toward kinase Kdr
T9 construct: purchased Invitrogen (assay run by Invitrogen)
T9 sequence (P35968 20-1356): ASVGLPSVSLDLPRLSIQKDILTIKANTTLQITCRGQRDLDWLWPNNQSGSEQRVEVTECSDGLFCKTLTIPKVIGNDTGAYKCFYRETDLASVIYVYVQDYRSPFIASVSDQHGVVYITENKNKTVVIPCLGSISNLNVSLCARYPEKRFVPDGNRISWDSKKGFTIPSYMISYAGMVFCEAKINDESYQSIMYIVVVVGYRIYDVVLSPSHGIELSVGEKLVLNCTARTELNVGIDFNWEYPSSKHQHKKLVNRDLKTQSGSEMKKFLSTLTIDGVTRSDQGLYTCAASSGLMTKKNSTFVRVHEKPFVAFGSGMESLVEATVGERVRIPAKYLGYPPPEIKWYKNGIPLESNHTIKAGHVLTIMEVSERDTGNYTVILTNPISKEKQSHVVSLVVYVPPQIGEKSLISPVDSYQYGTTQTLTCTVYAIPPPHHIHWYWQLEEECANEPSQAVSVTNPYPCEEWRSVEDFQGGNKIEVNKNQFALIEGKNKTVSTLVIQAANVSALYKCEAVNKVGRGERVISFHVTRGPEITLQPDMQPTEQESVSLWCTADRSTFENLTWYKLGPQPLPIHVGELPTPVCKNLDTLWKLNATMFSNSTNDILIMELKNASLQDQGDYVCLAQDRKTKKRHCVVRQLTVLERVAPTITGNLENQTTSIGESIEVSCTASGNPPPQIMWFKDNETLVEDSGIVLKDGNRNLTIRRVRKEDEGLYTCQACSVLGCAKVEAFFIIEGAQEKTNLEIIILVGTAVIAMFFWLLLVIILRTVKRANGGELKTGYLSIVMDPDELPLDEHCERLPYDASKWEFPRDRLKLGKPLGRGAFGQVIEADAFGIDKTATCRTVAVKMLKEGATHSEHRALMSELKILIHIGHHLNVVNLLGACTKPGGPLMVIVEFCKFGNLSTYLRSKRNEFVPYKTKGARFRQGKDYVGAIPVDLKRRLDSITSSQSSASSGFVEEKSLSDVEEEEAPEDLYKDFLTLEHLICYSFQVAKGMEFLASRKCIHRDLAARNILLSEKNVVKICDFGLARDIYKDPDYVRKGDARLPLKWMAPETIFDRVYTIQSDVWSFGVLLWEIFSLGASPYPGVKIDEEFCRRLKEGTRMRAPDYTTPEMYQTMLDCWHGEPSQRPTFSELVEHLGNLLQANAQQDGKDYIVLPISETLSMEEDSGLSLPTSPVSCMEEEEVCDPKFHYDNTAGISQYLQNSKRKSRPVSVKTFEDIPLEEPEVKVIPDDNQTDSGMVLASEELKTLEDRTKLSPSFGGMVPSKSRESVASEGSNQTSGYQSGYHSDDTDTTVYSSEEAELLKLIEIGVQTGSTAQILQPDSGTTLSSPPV

IKK beta = molecular target: T10, IKK beta (Homo sapiens, UniProt O14920); test: AlphaScreen kinase assay, IKK beta; settings: read-out: IC50, activity toward kinase IKK beta
T10 sequence (O14920 1-756): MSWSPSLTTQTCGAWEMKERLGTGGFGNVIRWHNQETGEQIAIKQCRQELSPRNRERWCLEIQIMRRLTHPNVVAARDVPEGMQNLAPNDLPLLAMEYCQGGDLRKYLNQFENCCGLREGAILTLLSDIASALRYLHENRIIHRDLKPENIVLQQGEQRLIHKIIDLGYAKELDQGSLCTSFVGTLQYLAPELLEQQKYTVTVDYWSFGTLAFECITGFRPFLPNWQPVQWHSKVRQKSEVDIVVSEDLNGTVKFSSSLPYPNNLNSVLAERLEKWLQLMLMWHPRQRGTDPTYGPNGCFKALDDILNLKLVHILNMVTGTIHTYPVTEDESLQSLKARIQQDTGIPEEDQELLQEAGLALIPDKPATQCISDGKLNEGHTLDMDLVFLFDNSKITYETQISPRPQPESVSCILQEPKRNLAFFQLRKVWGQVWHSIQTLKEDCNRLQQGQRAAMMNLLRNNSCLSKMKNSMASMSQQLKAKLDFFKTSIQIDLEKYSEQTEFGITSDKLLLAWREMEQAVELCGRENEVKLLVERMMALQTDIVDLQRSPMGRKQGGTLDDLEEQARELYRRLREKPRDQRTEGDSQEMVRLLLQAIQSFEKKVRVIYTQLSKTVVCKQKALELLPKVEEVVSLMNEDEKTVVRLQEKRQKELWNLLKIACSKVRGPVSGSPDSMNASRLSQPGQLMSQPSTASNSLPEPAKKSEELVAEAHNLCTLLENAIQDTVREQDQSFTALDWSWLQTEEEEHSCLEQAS

Jak3 = molecular target: T11, Jak3 (Homo sapiens, UniProt P52333); test: AlphaScreen kinase assay, Jak3; settings: read-out: IC50, activity toward kinase Jak3
T11 sequence (P52333 1-1124): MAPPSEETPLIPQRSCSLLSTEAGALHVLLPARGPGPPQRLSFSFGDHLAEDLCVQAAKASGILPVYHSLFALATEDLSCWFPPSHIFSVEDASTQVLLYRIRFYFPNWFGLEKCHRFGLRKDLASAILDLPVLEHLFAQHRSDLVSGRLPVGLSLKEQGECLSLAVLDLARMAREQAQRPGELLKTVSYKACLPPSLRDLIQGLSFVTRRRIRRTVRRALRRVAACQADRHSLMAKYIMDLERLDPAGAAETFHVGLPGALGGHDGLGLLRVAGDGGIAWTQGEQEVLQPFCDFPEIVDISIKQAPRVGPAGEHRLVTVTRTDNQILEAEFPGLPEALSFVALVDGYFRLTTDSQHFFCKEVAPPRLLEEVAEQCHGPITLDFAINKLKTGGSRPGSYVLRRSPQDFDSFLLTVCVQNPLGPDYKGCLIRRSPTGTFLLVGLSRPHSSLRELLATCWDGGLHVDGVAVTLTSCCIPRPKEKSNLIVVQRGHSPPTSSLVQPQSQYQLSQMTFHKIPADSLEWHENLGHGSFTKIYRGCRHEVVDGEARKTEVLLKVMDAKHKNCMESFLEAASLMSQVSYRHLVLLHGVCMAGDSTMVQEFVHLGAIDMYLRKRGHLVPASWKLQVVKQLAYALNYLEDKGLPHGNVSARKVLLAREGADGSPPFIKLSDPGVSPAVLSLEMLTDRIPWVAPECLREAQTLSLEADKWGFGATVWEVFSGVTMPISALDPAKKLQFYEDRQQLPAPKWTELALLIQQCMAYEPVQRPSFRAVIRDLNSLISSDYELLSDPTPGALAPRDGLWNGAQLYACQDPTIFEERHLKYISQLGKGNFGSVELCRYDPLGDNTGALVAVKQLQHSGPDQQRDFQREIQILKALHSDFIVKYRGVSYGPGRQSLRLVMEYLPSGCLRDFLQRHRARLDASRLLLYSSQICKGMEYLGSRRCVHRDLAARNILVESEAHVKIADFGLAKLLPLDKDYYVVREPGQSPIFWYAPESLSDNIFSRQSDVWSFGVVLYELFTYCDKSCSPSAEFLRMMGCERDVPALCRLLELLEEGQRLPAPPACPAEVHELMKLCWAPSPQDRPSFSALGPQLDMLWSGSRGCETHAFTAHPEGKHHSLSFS
Excerpt: as §2, §3

FGFR1 = molecular target: T12, FGFR1 (Homo sapiens, UniProt P11362, C488A/C584S); test: AlphaScreen kinase assay, FGFR1; settings: read-out: IC50, activity toward kinase FGFR
T12 construct: P1351.pET N6 BI-PTP FGFR A458-E765-X C488A, C584S; made in house; host or cells: E. coli (PTP1B co-expressed)
T12 sequence (P11362 458-765 C488A/C584S): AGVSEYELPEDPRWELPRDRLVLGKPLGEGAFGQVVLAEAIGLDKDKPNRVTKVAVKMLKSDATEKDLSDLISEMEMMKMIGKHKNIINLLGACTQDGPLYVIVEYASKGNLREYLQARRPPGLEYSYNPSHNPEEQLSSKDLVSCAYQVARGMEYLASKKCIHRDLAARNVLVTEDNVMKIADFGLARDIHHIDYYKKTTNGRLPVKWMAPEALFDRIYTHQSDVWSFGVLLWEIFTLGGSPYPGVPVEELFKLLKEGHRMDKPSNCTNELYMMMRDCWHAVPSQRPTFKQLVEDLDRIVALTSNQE

Fms = molecular target: T13, Fms (Homo sapiens, UniProt P07333); test: AlphaScreen kinase assay, Fms; settings: read-out: IC50, activity toward kinase Fms
T13 construct: purchased Upstate Biotechnology

Kit = molecular target: T14, Kit (Homo sapiens, UniProt P10721); test: AlphaScreen kinase assay, Kit; settings: read-out: IC50, activity toward kinase Kit
T14 construct: P1332.N6 BI PTP KIT M552-K948-X COD; His6 (N); made in house; host or cells: E. coli (PTP1B co-expressed)

TEC = molecular target: T15, TEC (Homo sapiens, UniProt P42680); test: AlphaScreen kinase assay, TEC; settings: read-out: IC50, activity toward kinase TEC
T15 sequence (P42680 1-631): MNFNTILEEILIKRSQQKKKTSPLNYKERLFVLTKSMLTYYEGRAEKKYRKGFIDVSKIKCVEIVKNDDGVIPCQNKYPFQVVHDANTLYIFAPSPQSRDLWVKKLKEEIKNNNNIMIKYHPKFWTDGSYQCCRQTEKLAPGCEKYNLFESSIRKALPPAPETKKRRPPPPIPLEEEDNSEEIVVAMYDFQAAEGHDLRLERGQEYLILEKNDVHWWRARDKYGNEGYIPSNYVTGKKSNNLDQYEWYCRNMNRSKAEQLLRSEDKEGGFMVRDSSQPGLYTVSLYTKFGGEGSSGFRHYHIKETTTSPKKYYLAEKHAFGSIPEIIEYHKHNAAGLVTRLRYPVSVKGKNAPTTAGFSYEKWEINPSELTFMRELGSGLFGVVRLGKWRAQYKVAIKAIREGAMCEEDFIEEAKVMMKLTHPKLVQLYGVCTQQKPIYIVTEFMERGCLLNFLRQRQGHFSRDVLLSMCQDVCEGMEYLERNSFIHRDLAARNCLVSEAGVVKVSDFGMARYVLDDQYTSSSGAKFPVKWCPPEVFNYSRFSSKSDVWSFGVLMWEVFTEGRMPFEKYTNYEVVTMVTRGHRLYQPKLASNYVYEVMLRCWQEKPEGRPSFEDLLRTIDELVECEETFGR
Excerpt: as §2, §3

Measured: IC50

T1 sequence (P15056 whole entry): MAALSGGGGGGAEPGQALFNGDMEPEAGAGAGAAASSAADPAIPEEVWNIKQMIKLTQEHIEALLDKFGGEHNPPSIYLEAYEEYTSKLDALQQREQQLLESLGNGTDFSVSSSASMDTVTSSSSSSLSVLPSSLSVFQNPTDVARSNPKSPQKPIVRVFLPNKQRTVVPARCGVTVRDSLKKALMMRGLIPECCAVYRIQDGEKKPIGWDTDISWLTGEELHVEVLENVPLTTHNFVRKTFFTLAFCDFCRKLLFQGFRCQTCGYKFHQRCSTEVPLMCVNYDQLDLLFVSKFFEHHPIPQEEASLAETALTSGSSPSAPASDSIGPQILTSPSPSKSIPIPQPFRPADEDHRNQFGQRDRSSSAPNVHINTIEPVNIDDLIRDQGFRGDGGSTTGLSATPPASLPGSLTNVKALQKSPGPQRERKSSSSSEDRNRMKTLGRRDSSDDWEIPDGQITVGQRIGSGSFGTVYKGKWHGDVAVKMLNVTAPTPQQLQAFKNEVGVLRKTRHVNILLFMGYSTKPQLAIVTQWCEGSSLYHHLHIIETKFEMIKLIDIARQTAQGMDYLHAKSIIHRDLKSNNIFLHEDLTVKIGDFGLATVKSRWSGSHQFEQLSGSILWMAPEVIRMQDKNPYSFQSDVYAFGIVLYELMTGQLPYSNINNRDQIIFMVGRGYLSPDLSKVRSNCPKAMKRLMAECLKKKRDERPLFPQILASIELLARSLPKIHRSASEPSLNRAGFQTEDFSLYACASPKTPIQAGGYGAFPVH

CS(=O)(=O)Nc1cccc(-c2cnc3[nH]cc(C(=O)c4cc(O)ccc4F)c3c2)c1 [Compound P-0716, N-{3-[3-(2-Fluoro-5-hydroxy-benzoyl)-1H-pyrrolo[2,3-b]pyridin-5-yl]-phenyl}-methanesulfonamide]
≤ 10 µM: B-Raf | B-Raf V600E | c-Raf-1 | Jnk3 | Met | Ret | Zap70 | IGF1R | Itk

OCc1cccc(-c2ccnc3[nH]ccc23)c1 [Compound P-0084]
≤ 10 µM: Kdr | IGF1R | IKK beta | Jak3

CS(=O)(=O)Nc1cccc(-c2cnc3[nH]ccc3c2)c1 [Compound P-1337]
≤ 10 µM: FGFR1 | Fms | IGF1R | Itk

COc1ccc(S(=O)(=O)Nc2ccc(F)c(C(=O)c3c[nH]c4ncc(Cl)cc34)c2F)cc1 [Compound P-0983, N-[3-(5-Chloro-1H-pyrrolo[2,3-b]pyridine-3-carbonyl)-2,4-difluoro-phenyl]-4-methoxy-benzenesulfonamide]
≤ 10 µM: B-Raf | B-Raf V600E | c-Raf-1 | FGFR1 | Kit | TEC
